Measurements from US10208033B2, “β-carboline, dihydro-β-carboline and tetrahydro-β-carboline alkaloid derivatives and preparation methods same and use in aspects of preventing and treating plant viruses, fungicides and insecticides” (NANKAI UNIVERSITY, priority 2013, dated 2019).
Where a name gives a salt, the structure may show the parent alone.

Key:
corn borers = assay: whole plant or invertebrate; settings: read-out: Corn borer Mortality (%)
Fusarium graminearumt = assay: microbe, parasite or virus in culture; assay type: cell-based; settings: Fusarium, 96 h, read-out: Bactericidal activity (%) Fusarium graminearumt
[1] = tested on: tobacco mosaic virus (TMV); assay: Anti-TMV in vitro effect (half-leaf soaking); assay type: cell-based, tobacco mosaic virus (host Nicotiana tabacum L.cv.Xanthi NN); settings: Tobacco mosaic virus, read-out: Relative inhibition rate (%) In vitro activity; for inhibition at 100 µg/mL: treatment dose 100 μg/mL; for inhibition at 500 µg/mL: treatment dose 500 μg/mL
Rhizoctonia cereali = assay: Fungicidal (bactericidal) activity in vitro, PDA colony diameter; assay type: cell-based; settings: Rhizoctonia, 96 h; 50 mg/kg
armyworms = assay type: in vivo; settings: concentration 600 mg/kg
[2] = tested on: tobacco mosaic virus (TMV); assay: Anti-TMV in vivo therapeutic effect; parameters: species or system tobacco mosaic virus (host Nicotiana tabacum L.cv.Xanthi NN); settings: Tobacco mosaic virus, read-out: Relative inhibition rate (%) In vivo therapy; for inhibition at 100 µg/mL: treatment dose 100 μg/mL; for inhibition at 500 µg/mL: treatment dose 500 μg/mL
Fusarium fujikuroi = assay: Fungicidal (bactericidal) activity in vitro, PDA colony diameter; assay type: cell-based; settings: Fusarium fujikuroi, 96 h; 50 mg/kg
[3] = tested on: Colletotrichum orbiculare; assay: as above; assay type: cell-based; settings: Colletotrichum orbiculare, 96 h; 50 mg/kg
Botrytis cinerea = assay: as above; assay type: cell-based; settings: Botrytis cinerea, 96 h; 50 mg/kg
potato late blight = assay: microbe, parasite or virus in culture; assay type: cell-based; settings: Phytophthora infestans, 96 h, read-out: Bactericidal activity (%) potato late blight
Phytophthora capsici = assay: Fungicidal (bactericidal) activity in vitro, PDA colony diameter; assay type: cell-based; settings: Phytophthora capsici, 96 h; 50 mg/kg
[4] = tested on: tobacco mosaic virus (TMV); assay: Anti-TMV in vivo protective effect; parameters: species or system tobacco mosaic virus (host Nicotiana tabacum L.cv.Xanthi NN); settings: Tobacco mosaic virus, read-out: Relative inhibition rate (%) In vivo protection; for inhibition at 100 µg/mL: treatment dose 100 μg/mL; for inhibition at 500 µg/mL: treatment dose 500 μg/mL
Alternaria solani = assay: Fungicidal (bactericidal) activity in vitro, PDA colony diameter; assay type: cell-based; settings: Alternaria solani, 96 h; 50 mg/kg
[5] = tested on: armyworms, cotton bollworms and corn borers; assay: Insecticidal activity, overall statements on Table 3; assay type: in vivo; settings: Table 3, 600 mg/kg
Sclerotinia scleotiorum = assay: Fungicidal (bactericidal) activity in vitro, PDA colony diameter; assay type: cell-based; settings: Sclerotinia, 96 h; 50 mg/kg
Macrophoma kawatsukai = assay: as above; assay type: cell-based; settings: 50 mg/kg
Rhizoctonia solani = assay: as above; assay type: cell-based; settings: Rhizoctonia solani, 96 h; 50 mg/kg
cotton bollworms = assay: whole plant or invertebrate; settings: Helicoverpa armigera, in Gossypium hirsutum, read-out: Cotton bollworm Mortality (%)
Method: Experimental method of cotton bollworms: feed and drug mixing method: measure 3 mL of prepared solution and add it to about 27 g of newly prepared feed, thereby obtaining needed concentration through dilution by 10 times.

[6] = tested on: tobacco mosaic virus (TMV); assay: Anti-TMV in vivo inactivation; parameters: species or system tobacco mosaic virus (host Nicotiana tabacum L.cv.Xanthi NN); settings: Tobacco mosaic virus, read-out: Relative inhibition rate (%) In vivo inactivation; for inhibition at 100 µg/mL: treatment dose 100 μg/mL; for inhibition at 500 µg/mL: treatment dose 500 μg/mL
cucumber fusarium wilt = assay: Fungicidal (bactericidal) activity in vitro, PDA colony diameter; assay type: cell-based; settings: Fusarium, 96 h; 50 mg/kg
Bipolaria maydis = assay: organism not typed; assay type: cell-based; settings: read-out: Bactericidal activity (%) Bipolaria maydis
Cercospora arachidicola = assay: Fungicidal (bactericidal) activity in vitro, PDA colony diameter; assay type: cell-based; settings: Mycosphaerella arachidis, 96 h; 50 mg/kg
mosquito larvae = assay: whole plant or invertebrate; settings: for mortality at 5 mg/kg / mortality at 10 mg/kg: Culex pipiens, 24 h, read-out: Mosquito larvae Mortality (%); for activity against culex pipiens larvae (in words): at 5 mg/kg
Outline: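 Compound dissolved in acetone (or other solvent) to a 1000 ppm stock and diluted in water to 5 ppm. Ten Culex pipiens pallens larvae at the start of the fourth instar, laboratory-reared, added per beaker; solvent-only aqueous control.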

[7] = tested on: tobacco mosaic virus (TMV); assay: Anti-TMV activity, overall statements on Table 1; assay type: in vivo, tobacco mosaic virus (host Nicotiana tabacum L.cv.Xanthi NN); settings: 100 μg/mL versus ningnanmycin at 100 μg/mL

Row | SMILES | mortality at 600 mg/kg (corn borers) [%] | inhibition of growth at 50 mg/kg (Fusarium graminearumt) [%] | inhibition at 100 µg/mL [1] [%] | inhibition at 500 µg/mL [1] [%] | inhibition of growth at 50 mg/kg (Rhizoctonia cereali) [%] | Armyworm Mortality (%) (armyworms) | inhibition at 100 µg/mL [2] [%] | inhibition at 500 µg/mL [2] [%] | inhibition of growth at 50 mg/kg (Fusarium fujikuroi) [%] | inhibition of growth at 50 mg/kg [3] [%] | inhibition of growth at 50 mg/kg (Botrytis cinerea) [%] | inhibition of growth at 50 mg/kg (potato late blight) [%] | inhibition of growth at 50 mg/kg (Phytophthora capsici) [%] | inhibition at 100 µg/mL [4] [%] | inhibition at 500 µg/mL [4] [%] | inhibition of growth at 50 mg/kg (Alternaria solani) [%] | activity against armyworms, cotton bollworms and corn borers (in words) [5] | inhibition of growth at 50 mg/kg (Sclerotinia scleotiorum) [%] | inhibition at 50 mg/kg (Macrophoma kawatsukai) [%] | inhibition of growth at 50 mg/kg (Rhizoctonia solani) [%] | other results
1 | C[C@@H]1N[C@H](C(=O)N/N=C/c2ccccc2)Cc2c1[nH]c1ccccc21 [Ic-1, (1S, 3S)—N′-benzylidene-1-methyl-2,3,4,9-tetrahydropyridino [3,4-b] indol-3-formylhydrazine] | 60 | 53.8 | 28.4 | 55.8 | 86.5 | 75 | 16 | 51.5 | 58.8 | 52 | 88.9 | 30.4 | 69.7 | 21.8 | 53.2 | 57.1 | broad-spectrum activity | 26.9 | 36.4 | 48.6 | mortality at 600 mg/kg (cotton bollworms): 55%; inhibition at 100 µg/mL [6]: 19.6%; inhibition at 500 µg/mL [6]: 56.3%; inhibition of growth at 50 mg/kg (cucumber fusarium wilt): 36.4%; inhibition at 50 mg/kg (Bipolaria maydis): 60%; inhibition of growth at 50 mg/kg (Cercospora arachidicola): 72.7%; mortality at 5 mg/kg (mosquito larvae): 80%; mortality at 10 mg/kg (mosquito larvae): 100%; activity against culex pipiens larvae (in words) (mosquito larvae): still show high activity
2 | CCOC(=O)[C@@H]1Cc2c([nH]c3ccccc23)[C@H](C)N1 [Ib-13, (1S, 3S)-1-methyl-2,3,4,9-tetrahydropyridino [3,4-b] indol-3-ethyl formate] | 55 | 21.4 | 21.8 | 46.5 | 59.4 | 60 | 17.5 | 43.9 | 42.9 | 38.1 | 68.2 | 30 | 60.6 | 18.6 | 47.9 | 55.6 | broad-spectrum activity | 68 | 29.4 | 33.9 | anti-TMV activity compared with ningnanmycin [7]: equivalent to the activity of commercial variety ningnanmycin; mortality at 600 mg/kg (cotton bollworms): 30%; inhibition at 100 µg/mL [6]: 25.7%; inhibition at 500 µg/mL [6]: 50.4%; inhibition of growth at 50 mg/kg (cucumber fusarium wilt): 28.6%; inhibition at 50 mg/kg (Bipolaria maydis): 26.3%; inhibition of growth at 50 mg/kg (Cercospora arachidicola): 50%; mortality at 5 mg/kg (mosquito larvae): 60%; mortality at 10 mg/kg (mosquito larvae): 100%; activity against culex pipiens larvae (in words) (mosquito larvae): still show high activity
3 | CCCCNC(=O)[C@@H]1Cc2c([nH]c3ccccc23)[C@H](C)N1 [Ib-16, (1S, 3S)—N-butyl-1-methyl-2,3,4,9-tetrahydro-pyridino [3,4-b] indol-3-formamide] | 50 | 14.3 | 0 | 38.4 | 57.9 | 65 | 21.1 | 44.9 | 14.3 | 28.6 | 18.2 | 22.7 | 18.8 | 15.8 | 42.1 | 21.1 | broad-spectrum activity | 0 | 33.3 | 46.1 | mortality at 600 mg/kg (cotton bollworms): 50%; inhibition at 100 µg/mL [6]: 13.5%; inhibition at 500 µg/mL [6]: 44%; inhibition of growth at 50 mg/kg (cucumber fusarium wilt): 23.1%; inhibition at 50 mg/kg (Bipolaria maydis): 18.2%; inhibition of growth at 50 mg/kg (Cercospora arachidicola): 84.6%; mortality at 5 mg/kg (mosquito larvae): 60%; mortality at 10 mg/kg (mosquito larvae): 100%; activity against culex pipiens larvae (in words) (mosquito larvae): still show high activity
